Reference: paper PMC6072243 (ACS Omega, 2018)

How the values were obtained:
[1] = target: p38α MAPK (Homo sapiens, UniProt Q16539); assay: p38α MAPK enzyme-linked immunosorbent assay; type: biochemical; conditions: for inhibition at 10 µM: read-out: Percent inhibition of p38α MAPK at indicated concentration
[2] = target: JNK3 (Homo sapiens, UniProt P53779); assay: JNK3 enzyme-linked immunosorbent assay; type: biochemical
Sequence of JNK3 (P53779 whole entry): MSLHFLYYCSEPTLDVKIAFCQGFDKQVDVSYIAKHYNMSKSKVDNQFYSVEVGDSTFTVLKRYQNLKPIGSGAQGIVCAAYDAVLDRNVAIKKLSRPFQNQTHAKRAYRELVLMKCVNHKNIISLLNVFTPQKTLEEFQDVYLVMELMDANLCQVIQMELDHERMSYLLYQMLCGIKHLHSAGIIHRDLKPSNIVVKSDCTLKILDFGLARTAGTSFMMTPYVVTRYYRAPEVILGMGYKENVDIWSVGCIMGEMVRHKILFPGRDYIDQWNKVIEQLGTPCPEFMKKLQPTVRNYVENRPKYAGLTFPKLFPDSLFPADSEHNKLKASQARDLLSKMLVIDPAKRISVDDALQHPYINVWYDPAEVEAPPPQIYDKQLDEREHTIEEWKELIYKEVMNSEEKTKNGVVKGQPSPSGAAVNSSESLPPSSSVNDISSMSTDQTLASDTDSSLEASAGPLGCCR

Sequence of p38α MAPK (Q16539 whole entry): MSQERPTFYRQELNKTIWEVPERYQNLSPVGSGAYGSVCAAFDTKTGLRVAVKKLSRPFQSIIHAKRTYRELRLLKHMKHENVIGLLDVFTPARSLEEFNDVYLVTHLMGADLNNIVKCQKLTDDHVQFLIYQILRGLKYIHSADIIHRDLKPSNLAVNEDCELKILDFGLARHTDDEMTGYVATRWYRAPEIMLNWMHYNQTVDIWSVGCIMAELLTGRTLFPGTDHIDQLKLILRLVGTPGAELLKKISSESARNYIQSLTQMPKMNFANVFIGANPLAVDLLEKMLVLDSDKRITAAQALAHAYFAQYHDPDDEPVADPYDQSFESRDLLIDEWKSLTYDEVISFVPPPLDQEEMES

IC50 [1] [nM] | IC50 [2] [nM] | fold higher activity for p38α MAPK than for JNK3 ([1]; ratio of IC50 values) [fold] | inhibition at 10 µM [1] [%] | Compound
17 ± 1 | 38 ± 2 | – | – | CSc1nc(-c2ccc(F)cc2)c(-c2ccnc(Nc3ccc(N4CCOCC4)cc3)c2)[nH]1 [Compound 5, 4-(4-(4-Fluorophenyl)-2-(methylthio)-1H-imidazol-5-yl)-N-(4-morpholinophenyl)pyridin-2-amine]
34 ± 4 | 142 ± 28 | – | – | O=c1[nH]c(-c2ccc(F)cc2)c(-c2ccnc(Nc3ccc(N4CCOCC4)cc3)c2)[nH]1 [Compound 8, 4-(4-Fluorophenyl)-5-(2-((4-morpholinophenyl)amino)pyridin-4-yl)-1,3-dihydro-2H-imidazol-2-one]
9 ± 4 | 34 ± 0.2 | – | – | CCc1nc(-c2ccc(F)cc2)c(-c2ccnc(Nc3ccc(N4CCOCC4)cc3)c2)[nH]1 [Compound 13, 4-(2-Ethyl-4-(4-fluorophenyl)-1H-imidazol-5-yl)-N-(4-morpholinophenyl)pyridin-2-amine]
24 ± 3 | 37 ± 3 | – | – | c1ccc(-c2nc[nH]c2-c2ccnc(Nc3ccc(N4CCOCC4)cc3)c2)cc1 [Compound 18a, N-(4-Morpholinophenyl)-4-(4-phenyl-1H-imidazol-5-yl)pyridin-2-amine]
38 ± 2 | 60 ± 8 | – | – | Clc1ccccc1-c1nc[nH]c1-c1ccnc(Nc2ccc(N3CCOCC3)cc2)c1 [Compound 18b, 4-(4-(2-Chlorophenyl)-1H-imidazole-5-yl)-N-(4-morpholinophenyl)pyridin-2-amine]
61 ± 2 | 131 ± 21 | – | – | Brc1ccccc1-c1nc[nH]c1-c1ccnc(Nc2ccc(N3CCOCC3)cc2)c1 [Compound 18c, 4-(4-(2-Bromophenyl)-1H-imidazol-5-yl)-N-(4-morpholinophenyl)pyridin-2-amine]
22 ± 3 | 143 ± 12 | 6 | – | FC(F)(F)c1cccc(-c2nc[nH]c2-c2ccnc(Nc3ccc(N4CCOCC4)cc3)c2)c1 [Compound 18d, N-(4-Morpholinophenyl)-4-(4-(3-(trifluoromethyl)phenyl)-1H-imidazol-5-yl)pyridin-2-amine]
16 ± 3 | 31 ± 3 | – | – | c1ccc2cc(-c3nc[nH]c3-c3ccnc(Nc4ccc(N5CCOCC5)cc4)c3)ccc2c1 [Compound 18e, N-(4-Morpholinophenyl)-4-(4-(naphthalen-2-yl)-1H-imidazol-5-yl)pyridin-2-amine]
3260 | 758 ± 49 | – | – | Cn1cc(-c2nc[nH]c2-c2ccnc(Nc3ccc(N4CCOCC4)cc3)c2)cn1 [Compound 18f, 4-(4-(1-Methyl-1H-pyrazol-4-yl)-1H-imidazol-5-yl)-N-(4-morpholinophenyl)pyridin-2-amine]
> 10000 | – | – | 34 | CCc1nc[nH]c1-c1ccnc(Nc2ccc(N3CCOCC3)cc2)c1 [Compound 39, 4-(4-Ethyl-1H-imidazol-5-yl)-N-(4-morpholinophenyl)pyridin-2-amine]
> 10000 | – | – | 43 | Cc1[nH]c(N)nc1-c1ccnc(Nc2ccc(N3CCOCC3)cc2)c1 [Compound 47, 4-(2-Amino-5-methyl-1H-imidazol-4-yl)-N-(4-morpholinophenyl)pyridin-2-amine]
> 10000 | – | – | 27 | CSc1nc(C)c(-c2ccnc(NC3CCOCC3)c2)[nH]1 [Compound 48f, 4-(4-Methyl-2-(methylthio)-1H-imidazol-5-yl)-N-(tetrahydro-2H-pyran-4-yl)pyridin-2-amine]
> 10000 | – | – | 12 | CSc1nc(C)c(-c2ccnc(N[C@H]3CC[C@H](NC(=O)c4ccccc4)CC3)c2)[nH]1 [Compound 48j, N-(trans-4-((4-(4-Methyl-2-(methylthio)-1H-imidazol-5-yl)pyridin-2-yl)amino)cyclohexyl)benzamide]
> 10000 | – | – | 13 | CSc1nc(C)c(-c2ccnc(N[C@H]3CC[C@H](NC(=O)C(C)(C)C)CC3)c2)[nH]1 [Compound 48l, N-(trans-4-((4-(4-Methyl-2-(methylthio)-1H-imidazol-5-yl)pyridin-2-yl)amino)cyclohexyl)pivalamide]
– | 171 ± 36 | – | – | Oc1c2ccccc2c2c3c(cccc13)N=N2 [SP600125, reference compound]
